Experiments:
[1] = single dose of 30 mg within 120 hours following unprotected intercourse; cited from earlier work
[2] = chronic administration, 5 mg or 10 mg per day; cited from earlier work
[3] = In vitro dissolution of UPA from gelatin gel capsules (paddle device, European Pharmacopoeia §2.9.3, 900 ml); type: physicochemical; details: 30 mg UPA capsule, 900 ml gastric pH buffer + 0.1% SDS, 37°C, 50 rpm, mean of 3
Description: The in vitro dissolution test can be carried out using any commercially available device comprising paddles. Example 1 hereinafter presents implementing conditions for determining the in vitro dissolution rate of a comicronizate according to the invention. Briefly, an amount of comicronizate representing 30 mg of active ingredient is placed in a gelatin gel capsule. This gel capsule is then placed in 900 ml of a medium buffered at gastric pH, comprising 0.1% of SDS, at 37±0.5° C., and subjected to stirring at 50 revolutions per minute (rpm) (speed of rotation of the paddles of the dissolution device).
For each comicronizate obtained, hard gelatin gel capsules containing an amount of comicronizate corresponding to 30 mg of UPA per capsule were prepared. The studies of in vitro dissolution of UPA as comicronizate were carried out using these capsules according to the European Pharmacopoeia in §2.9.3, using a paddle dissolution device. For each comicronizate, a gel capsule containing said comicronizate was placed in a bowl of the dissolution device containing 900 ml of a dissolution medium. The dissolution medium is an aqueous solution buffered at gastric pH and comprising 0.1% by weight of SDS. The conditions for carrying out the in vitro dissolutions are the following: • Paddle rotation speed: 50 revolutions per minute (rpm) • Temperature: 37° C.±0.5° C.
The dissolution of the UPA was monitored by spectrophotometry.
By way of control experiment, a gelatin gel capsule containing 30 mg of ulipristal acetate micronized alone (i.e. UPA micronized in the absence of any co-micronization excipient) was used.
For each comicronizate, the dissolution experiment was reproduced 3 times. […]

[4] = Pharmacokinetic study in rats (plasma UPA by LC/MS/MS); type: in vivo; details: female, OFA(SD), rat, 4 mg UPA per kg, powder into the stomach, pooled plasma
Description: The pharmacokinetic study was carried out on female OFA(SD) rats weighing between 0.206 and 0.251 kg. The animals were deprived of food for 16 hours before the administration of the samples. The animals were placed in cages, the temperature of which was maintained between 20 and 25° C.; the day/night cycles were 12 h each (6 am-6 pm) and the air was conditioned using a ventilation system.
The samples tested are the following: • Comicronizate of ulipristal acetate/SDS, 1/1 ratio • Powder of ulipristal acetate micronized in the absence of any excipient (UPA micronized alone)
A predetermined amount of powder was administered by means of an oesophageal tube using a cannula. The powder was introduced into the stomach of each animal using a catheter. The dose administered corresponds to 4 mg of ulipristal acetate per kg.
Blood samples of 300 μl were taken from the (left or right) jugular of the rats. In order to avoid excessively high blood sampling, the rats were divided into 3 groups of 6 rats as follows:
The samples were collected on heparin tubes and then centrifuged within the hour for 7-8 min at 1600 g at 4° C. At each sampling time, the plasma of the 6 rats of the group is “pooled”.
The ulipristal acetate was assayed by LC/MS/MS under the following conditions: • Mobile phase: Methanol/distilled water (70/30, V/V)+1% acetic acid • Column: BDS Hypersil phenyl, 100×2.1 mm, 5 μm • Elution mode: isocratic • flow rate: 0.400 ml/min • Injection volume: 10.0 μl • Needle cleaning liquid: Acetonitrile/isopropanol/acetone (40/40/20, V/V/V) 2. Results

SMILES | Emergency contraceptive effect [1] | Effect on symptoms associated with uterine fibromas [2] | Percentage of UPA released relative to initial amount per gel capsule ([3]; t=0 min) | Percentage of UPA released relative to initial amount per gel capsule ([3]; t=1 min) | Percentage of UPA released relative to initial amount per gel capsule ([3]; t=5 min) | Percentage of UPA released relative to initial amount per gel capsule ([3]; t=7.5 min) | Percentage of UPA released relative to initial amount per gel capsule ([3]; t=10 min) | Percentage of UPA released relative to initial amount per gel capsule ([3]; t=15 min) | Percentage of UPA released relative to initial amount per gel capsule ([3]; t=20 min) | Percentage of UPA released relative to initial amount per gel capsule ([3]; t=20 min, listed as Micronized UPA (in the absence of excipient)) | Percentage of UPA released relative to initial amount per gel capsule ([3]; t=20 min, listed as ulipristal acetate which has been micronized in the absence of excipient) | Percentage of UPA released relative to initial amount per gel capsule ([3]; t=30 min) | Percentage of UPA released relative to initial amount per gel capsule ([3]; t=45 min) | Percentage of UPA released relative to initial amount per gel capsule ([3]; t=60 min) | Tmax ([4]; oral) | AUC(0-inf) ([4]; po, 4 mg/kg) | AUC(0-t) ([4]; po, 4 mg/kg) | Cmax ([4]; po, 4 mg/kg)
CC(=O)O[C@]1(C(C)=O)CCC2C3CCC4=CC(=O)CCC4=C3[C@@H](c3ccc(N(C)C)cc3)C[C@@]21C (stereo partly drawn) [UPA, 17α-acetoxy-11β-[4-(N,N-dimethylamino)-phenyl]-19-norpregna-4,9-diene-3,20-dione] | makes it possible to prevent an unwanted pregnancy | significantly reduce the symptoms associated with uterine fibromas | – | – | – | – | – | – | – | – | – | – | – | – | – | – | – | –
CC(=O)O[C@]1(C(C)=O)CCC2C3CCC4=CC(=O)CCC4=C3[C@@H](c3ccc(N(C)C)cc3)C[C@@]21C (stereo partly drawn) [UPA micronized alone, 17α-acetoxy-11β-[4-(N,N-dimethylamino)-phenyl]-19-norpregna-4,9-diene-3,20-dione] | – | – | 0.0% | 0.0% | 5.5% | 15.00% | 22.30% | 30.00% | 34.30% | 34.30% | approximately 35% | 39.50% | 47.50% | 53.80% | 1.25 h | 1380 ng·h/mL | 1340 ng·h/mL | 447 ng/mL

Source: patent publication US9610293B2, “Co-micronization product comprising ulipristal acetate” (LABORATOIRE HRA-PHARMA, priority 2012, dated 2017)
